We go through eight compounds from patent US4154830A, “Unsaturated derivatives of 7-acylamido-3-cephem-4-carboxylic acid” (Carlo Erba S.p.A., priority 1977, dated 1979).

Values after ≈ are worked out from the molar mass of the structure shown. Like-named read-outs stand apart in the source and are kept apart here. Where only a bound is given, the exact number is not on record here.

Common to all, as to type: cell-based
In assay [1] the test system is Proteus mirabilis ATCC9921. As to the kind of experiment: minimal inhibiting concentration (MIC), Gram-negative bacteria.
Assay [2] concerns Staphylococcus aureus Smith. Description: minimal inhibiting concentration (MIC), Gram-positive bacteria.
The subject of assay [3] is Klebsiella pneumoniae ATCC 10031. As to the kind of experiment: minimal inhibiting concentration (MIC), Gram-negative bacteria. Particulars: ATCC10031.
A further assay relates to Diplococcus aureus 39/2. As to the kind of experiment: minimal inhibiting concentration (MIC), Gram-positive bacteria.
The test system of assay [4] is Enterobacter cloacae 1321E. As to the kind of experiment: minimal inhibiting concentration (MIC), Gram-negative bacteria.
Assay [5] has as its system Shigella sonnei ATCC11060. Described as above.
The test system of assay [6] is Klebsiella aerogenes 1522E. Described as above.
The test system of assay [7] is Enterobacter aerogenes ATCC8308. The assay is described as above. Particulars: Klebsiella aerogenes.
For assay [8], the system named is Streptococcus β-haemolyticus C203. Description: minimal inhibiting concentration (MIC), Gram-positive bacteria.
The test system of a further assay is Escherichia coli 1507. Description: minimal inhibiting concentration (MIC), Gram-negative bacteria.
A further assay deals with Escherichia coli G. The assay is described as above.
Assay [9] relates to Diplococcus pneumoniae ATCC6301. Description: minimal inhibiting concentration (MIC), Gram-positive bacteria. Particulars: Streptococcus pneumoniae.
In another assay the test system is Salmonella typhi Watson. As to the kind of experiment: minimal inhibiting concentration (MIC), Gram-negative bacteria. Particulars: Salmonella enterica.
A further assay concerns staphylococci. Description: activity against staphylococci compared with Cefazolin. From the text:
(§1) The pharmaceutical or veterinary compositions containing the compounds of the invention may be prepared in a conventional way by employing the conventional carriers and/or diluents used for the other cephalosporins. Conventional carriers or diluents are, for example, water, gelatine, lactose, starches, magnesium stearate, talc, vegetable oils, cellulose and the like.

Assay [10] deals with streptococci (including diplococci). As to the kind of experiment: activity against streptococci (including diplococci) compared with Cefazolin.
Source text: as §1

For the next assay, the system named is Haemophylus influenzae. Description: activity against Haemophylus influenzae in comparison with Cefazolin. Particulars: 7 strains tested.
Source text: as §1

The next assay has as its system Gram-negative bacteria. As to the kind of experiment: activity against Gram-negative bacteria. From the text: The compounds of the invention may be administered, either to humans or to animals, in a variety of dosage forms, e.g., orally in the form of tablets, capsules, drops or syrups; rectally in the form of suppositories; parenterally, e.g. intravenously or intramuscolarly (as solutions or suspensions), with intravenous administration being preferred in emergency situation; by inhalation in the form of aerosols or solutions for nebulizers; intravaginally in the form, e.g. of bougies; or topically in the form of lotions, creams and ointments. The pharmaceutical or veterinary compositions containing the compounds of the invention may be prepared in a conventional way by employing the conventional carriers and/or diluents used for the other cephalosporins. Conventional carriers or diluents are, for example, water, gelatine, lactose, starches, magnesium stearate, talc, vegetable oils, cellulose and the like. Daily doses in the range of about 1 to about 100 mg per kg of body weight may be used, in various animal species, the exact dose depending on the age, weight and condition of the subject to be treated and on the frequency and route of administration. […]

Assay [11] relates to 60 strains of Gram-negative microorganisms comprising Klebsiella, Escherichia coli, Proteus mirabilis and Proteus vulgaris. Description: activity on a series of 60 strains of Gram-negative microorganisms in comparison with Cefazolin.
Source text: as §1

[12] abbreviates: Escherichia coli G, read-out: MIC.

Regarding `Cn1nnnc1SCC1=C(C(=O)O)N2C(=O)C(NC(=O)[C@H](O)c3ccccc3)[C@H]2SC1` (stereo partly drawn) [Cefamandole, 7-D-mandelamido-3-{[(1-methyl-1H-tetrazol-5-yl)-thio]-methyl}-3-cephem-4-carboxylic acid, reference compound], the MIC worked out at 1.6 µg/mL (≈ 3.46 µM) in [1]; 0.15 µg/mL (≈ 0.324 µM) in assay [2]; 0.15 µg/mL (≈ 0.324 µM) in assay [3]; 1.2 µg/mL (≈ 2.59 µM) against Diplococcus aureus 39/2; 1.6 µg/mL (≈ 3.46 µM) in [4]; 2.35 µg/mL (≈ 5.08 µM) in assay [5]. The minimal inhibitory concentration (MIC) in [6] is 0.4 µg/mL (≈ 0.865 µM); in assay [7], 1.6 µg/mL (≈ 3.46 µM); in assay [8], 0.019 µg/mL (≈ 0.0411 µM); in the assay on Escherichia coli 1507, 0.8 µg/mL (≈ 1.73 µM); in the assay on Escherichia coli G (Escherichia coli), 2.35 µg/mL (≈ 5.08 µM); in assay [9] it was 0.019 µg/mL (≈ 0.0411 µM). The compound also displayed an MIC in the assay on Salmonella typhi Watson of 0.6 µg/mL (≈ 1.3 µM).
With `Cc1nnc(SCC2=C(C(=O)O)N3C(=O)[C@@H](NC(=O)Cn4cnnn4)[C@H]3SC2)s1` [Cefazolin, 7-(1-(1H)-tetrazolylacetamido)-3-[2-(5-methyl-1,3,4-thiadiazolyl)-thiomethyl]-3-cephem-4-carboxylic acid, reference compound], the MIC in assay [1] came out at 6.2 µg/mL (≈ 13.6 µM); in [2], 0.05 µg/mL (≈ 0.11 µM); in [3] it was 0.8 µg/mL (≈ 1.76 µM); in the assay on Diplococcus aureus 39/2, 0.6 µg/mL (≈ 1.32 µM); in assay [4], 3.1 µg/mL (≈ 6.82 µM); in assay [5], 1.6 µg/mL (≈ 3.52 µM). Besides, the minimum inhibitory concentration (MIC) in assay [6] amounted to 1.1 µg/mL (≈ 2.42 µM); in [7], 1.2 µg/mL (≈ 2.64 µM); in assay [8], 0.05 µg/mL (≈ 0.11 µM); against Escherichia coli 1507, 1.6 µg/mL (≈ 3.52 µM); in the assay on Escherichia coli G (setting [12]), 1.6 µg/mL (≈ 3.52 µM); in [9] it was 0.05 µg/mL (≈ 0.11 µM). The same compound returned an MIC against Salmonella typhi Watson of 1.6 µg/mL (≈ 3.52 µM).
In the case of `Cc1nnc(SCC2=C(C(=O)O)N3C(=O)C(NC(=O)CSCC#N)C3SC2)s1` (stereo not shown) [K 9227, 7-[(cyanomethyl-thio)-acetamido]-3-[2-(5-methyl-1,3,4-thiadiazolyl)-thiomethyl]-3-cephem-4-carboxylic acid, reference compound], the minimum inhibitory concentration (MIC) in assay [1] was 12.5 µg/mL (≈ 27.3 µM); in assay [2], 0.05 µg/mL (≈ 0.109 µM); in assay [3], 0.4 µg/mL (≈ 0.874 µM); against Diplococcus aureus 39/2, 0.2 µg/mL (≈ 0.437 µM); in assay [4], 3.1 µg/mL (≈ 6.77 µM); in assay [5] it was 1.6 µg/mL (≈ 3.5 µM). The MIC in assay [6] stood at 1.6 µg/mL (≈ 3.5 µM); in assay [7], 1.2 µg/mL (≈ 2.62 µM); in assay [8], 0.025 µg/mL (≈ 0.0546 µM); with Escherichia coli 1507, 1.6 µg/mL (≈ 3.5 µM); in the assay with Escherichia coli G (setting [12]), 3.1 µg/mL (≈ 6.77 µM); in [9], 0.4 µg/mL (≈ 0.874 µM). The compound also showed a minimum inhibitory concentration (MIC) against Salmonella typhi Watson of 0.8 µg/mL (≈ 1.75 µM).
`Cn1nnnc1SCC1=C(C(=O)O)N2C(=O)C(NC(=O)CSCC#N)C2SC1` (stereo not shown) [K 10299, 7-[(cyanomethyl-thio)-acetamido]-3-[5-(1-methyl-1,2,3,4-tetrazolyl)-thiomethyl]-3-cephem-4-carboxylic acid, reference compound]: the minimal inhibitory concentration (MIC) in assay [1] turned out to be 6.2 µg/mL (≈ 14 µM); in [2] it was 0.075 µg/mL (≈ 0.17 µM); in [3] it was 0.2 µg/mL (≈ 0.453 µM); in the assay with Diplococcus aureus 39/2, 0.4 µg/mL (≈ 0.906 µM); in assay [4], 1.6 µg/mL (≈ 3.62 µM); in assay [5], 1.6 µg/mL (≈ 3.62 µM). Further, the MIC in [6] turned out to be 0.8 µg/mL (≈ 1.81 µM); in [7] it was 0.6 µg/mL (≈ 1.36 µM); in assay [8], 0.037 µg/mL (≈ 0.0838 µM); in the assay on Escherichia coli 1507, 0.8 µg/mL (≈ 1.81 µM); with Escherichia coli G (setting [12]), 0.8 µg/mL (≈ 1.81 µM); in [9], 0.2 µg/mL (≈ 0.453 µM). In the assay on Salmonella typhi Watson, this compound displayed an MIC of 0.2 µg/mL (≈ 0.453 µM).
Consider `Cn1nnnc1SCC1=C(C(=O)O)N2C(=O)C(NC(=O)CS/C=C/C(N)=O)C2SC1` (stereo not drawn) [K 11457, 7-[β-carboxamido-ethylene(trans)-thio-acetamido]-3-[(1-methyl-1,2,3,4-tetrazol-5-yl)-thiomethyl]-3-cephem-4-carboxylic acid], for which the minimum inhibitory concentration (MIC) in [1] came out at 3.1 µg/mL (≈ 6.57 µM); in assay [2], 0.1 µg/mL (≈ 0.212 µM); in assay [3], 0.15 µg/mL (≈ 0.318 µM); against Diplococcus aureus 39/2, 0.4 µg/mL (≈ 0.848 µM); in [4], 1.6 µg/mL (≈ 3.39 µM); in assay [5] it was 1.6 µg/mL (≈ 3.39 µM). The MIC in assay [6] amounted to 0.2 µg/mL (≈ 0.424 µM); in [7], 0.4 µg/mL (≈ 0.848 µM); in [8], 0.025 µg/mL (≈ 0.053 µM); against Escherichia coli 1507 it was 0.4 µg/mL (≈ 0.848 µM); in the assay with Escherichia coli G (setting [12]) it was 0.4 µg/mL (≈ 0.848 µM); in [9], 0.025 µg/mL (≈ 0.053 µM). In addition, the MIC against Salmonella typhi Watson amounted to 0.2 µg/mL (≈ 0.424 µM).
`Cn1nnnc1SCC1=C(C(=O)O)N2C(=O)C(NC(=O)CS/C=C\C(N)=O)C2SC1` (stereo not drawn) [K 13031, 7-[β-carboxamido-ethylene(cis)-thio-acetamido]-3-[(1-methyl-1,2,3,4-tetrazol-5-yl)-thiomethyl]-3-cephem-4-carboxylic acid]: the minimum inhibitory concentration (MIC) in assay [1] turned out to be 0.8 µg/mL (≈ 1.7 µM); in [2], 0.1 µg/mL (≈ 0.212 µM); in assay [3], 0.2 µg/mL (≈ 0.424 µM); in the assay on Diplococcus aureus 39/2 it was 0.2 µg/mL (≈ 0.424 µM); in assay [4], 0.8 µg/mL (≈ 1.7 µM); in assay [5], 0.3 µg/mL (≈ 0.636 µM). For the same compound, the MIC in [6] was 0.2 µg/mL (≈ 0.424 µM); in [7], 0.3 µg/mL (≈ 0.636 µM); in assay [8], < 0.012 µg/mL; in the assay on Escherichia coli 1507, 0.4 µg/mL (≈ 0.848 µM); with Escherichia coli G (setting [12]), 0.8 µg/mL (≈ 1.7 µM); in [9] it was 0.012 µg/mL (≈ 0.0254 µM). The compound also came in with an MIC in the assay on Salmonella typhi Watson of 0.2 µg/mL (≈ 0.424 µM).
Turning to `Cn1nnnc1SCC1=C(C(=O)O)N2C(=O)C(NC(=O)CS/C=C\C#N)C2SC1` (stereo not drawn) [K 13101, 7-[β-cyano-ethylene(cis)-thio-acetamido]-3-[(1-methyl-1,2,3,4-tetrazol-5-yl)-thiomethyl]-3-cephem-4-carboxylic acid], the MIC in [1] was 0.4 µg/mL (≈ 0.882 µM); in assay [2] it was 0.025 µg/mL (≈ 0.0551 µM); in [3] it was 0.1 µg/mL (≈ 0.22 µM); with Diplococcus aureus 39/2, 0.14 µg/mL (≈ 0.309 µM); in assay [4] it was 0.56 µg/mL (≈ 1.23 µM); in assay [5] it was 0.8 µg/mL (≈ 1.76 µM). The minimal inhibitory concentration (MIC) is 0.1 µg/mL (≈ 0.22 µM) in assay [6]; 0.2 µg/mL (≈ 0.441 µM) in [7]; 0.012 µg/mL (≈ 0.0265 µM) in assay [8]; 0.1 µg/mL (≈ 0.22 µM) in the assay with Escherichia coli 1507; 0.14 µg/mL (≈ 0.309 µM) in the assay with Escherichia coli G (setting [12]); 0.012 µg/mL (≈ 0.0265 µM) in assay [9]. In the assay on Salmonella typhi Watson, this compound yielded an MIC of 0.07 µg/mL (≈ 0.154 µM). Also, the “times more active than Cefazolin” value is “about 2 times” in the assay with staphylococci, “about 4.2 times” in [10], “about 6 times” with Haemophylus influenzae and “about 9.6 times” with Gram-negative bacteria. For the same compound, the “activity in comparison with Cefazolin” value in [11] is on record as “always found to be more active than Cefazolin”.
`N#C/C=C\SCC(=O)NC1C(=O)N2C(C(=O)O)=C(CSc3nncs3)CSC12` (stereo not drawn) [K 13107, 7-[β-cyano-ethylene(cis)-thio-acetamido]-3-[(1,3,4-thiadiazol-2-yl)-thiomethyl]-3-cephem-4-carboxylic acid]: the MIC is 0.4 µg/mL (≈ 0.878 µM) in [1]; 0.025 µg/mL (≈ 0.0549 µM) in assay [2]; 0.2 µg/mL (≈ 0.439 µM) in assay [3]; 0.14 µg/mL (≈ 0.307 µM) in the assay on Diplococcus aureus 39/2; 1.6 µg/mL (≈ 3.51 µM) in assay [4]; 1.6 µg/mL (≈ 3.51 µM) in assay [5]. The MIC in assay [6] was 0.28 µg/mL (≈ 0.615 µM); in [7], 0.4 µg/mL (≈ 0.878 µM); in [8], < 0.006 µg/mL; in the assay on Escherichia coli 1507, 0.57 µg/mL (≈ 1.25 µM); in the assay with Escherichia coli G (setting [12]) it was 0.57 µg/mL (≈ 1.25 µM); in assay [9], < 0.006 µg/mL. In the assay with Salmonella typhi Watson, this compound gave an MIC of 0.2 µg/mL (≈ 0.439 µM).
